# In ChEMBL document CHEMBL1159024, “Inhibitory effect of tannic acid on gastric H+,K(+)-ATPase” (J Nat Prod, 1992):
# pIC50: −log10 of the molar value. Activity calls are given as the source filed them. The calls are words filed in the database; no cut-off is given here.
# Tests used:
# [1] = Inhibition of K+ dependent pNPPase from pig gastric mucosa; type: tissue-based, Sus scrofa
# Sus scrofa [2] = species on record: Sus scrofa; test: Inhibition of H(+)/K(+) ATPase from pig gastric mucosa by competitive-double reciprocal plot in presence of ATP; type: tissue-based
# [3] = Inhibition of H(+)/K(+) ATPase from pig gastric mucosa; type: tissue-based, Sus scrofa
# Sus scrofa [4] = species on record: Sus scrofa; test: Inhibition of H(+)/K(+) ATPase from pig gastric mucosa by non competitive-double reciprocal plot in presence of K+; type: tissue-based
compound,measurement,setting,value
O=C(OC[C@H]1O[C@@H](OC(=O)c2cc(O)c(O)c(OC(=O)c3cc(O)c(O)c(O)c3)c2)[C@H](OC(=O)c2cc(O)c(O)c(OC(=O)c3cc(O)c(O)c(O)c3)c2)[C@@H](OC(=O)c2cc(O)c(O)c(OC(=O)c3cc(O)c(O)c(O)c3)c2)[C@@H]1OC(=O)c1cc(O)c(O)c(OC(=O)c2cc(O)c(O)c(O)c2)c1)c1cc(O)c(O)c(OC(=O)c2cc(O)c(O)c(O)c2)c1 [TANNIC ACID],pIC50,[1],6.39
same,Activity,Sus scrofa [2],Active
same,pIC50,[3],7.54
same,Activity,Sus scrofa [4],Active
O=c1oc2c(O)c(O)cc3c(=O)oc4c(O)c(O)cc1c4c23 [ELLAGIC ACID],Activity,Sus scrofa [2],Active
same,pIC50,[3],6.68
same,Activity,Sus scrofa [4],Active
